# Laboratory results from patent US20140328762A1, “Fluorogenic Peptide Probes and Assays” (priority 2011, published 2014).
# pKd: −log10 of the molar value. Read-outs that look alike come from different tables or passages of the source.
# Tests used:
# E3 peptide [1] = settings: cited from earlier work
# E3 peptide [2] = experiment: Fluorescence titration of K3-b1b3 beacon with E3 peptide; type: binding
# Procedure: (§1) All spectra data were obtained with Safire II microplate reader (TECAN). Data was acquired right after mixing the beacon with its target.
# To further characterize the K3-b1b3 beacon, titration of lower concentration (10 nM) of K3-b1b3 beacon has also been performed.
# E3 peptide [3] = experiment: Non-specific fluorescence enhancement (crosstalk) assay, FIG. 14, with E3 peptide; type: binding; settings: 100 nM beacon, 10 μM E3 peptide, 580 nm, excitation 520 nm
# Procedure: (§2) FIGS. 14A and 14B show bar graphs of relative fluorescence intensity versus different peptide beacons. Non-specific fluorescence enhancement of peptide beacons by various unrelated coiled coil-forming peptides is shown. All reagents other than the beacons are loaded to 10 μM. The data represent relative fluorescence intensity at 580 nm (bandwidth 20 nm) collected by excitation at 520 nm (band width 15 nm). (FIG. 14A) All samples contain 100 nM K3-b1b3 beacon. Columns A, B, C, D, E are beacon only, beacon with unlabeled JunLZ-Lb1b4, beacon with unlabeled FosLZ, beacon with unlabeled GCN4 244, and beacon with E3 peptide, respectively. […] Column A, B, C, D, E are beacon only, beacon with unlabeled K3-b1b3 peptide, beacon with E3 peptide, beacon with unlabeled GCN4 244, beacon with FosLZ.
# (§3) So a concern about the binding specificity naturally arises. […] It is not a surprising result, since both peptides have leucine residues at all d positions, and that multiple electrostatic interactions exist between […].
# [4] = system: unrelated coiled coil-forming peptides; experiment: Crosstalk of beacon with unrelated peptides, overall; type: binding; settings: FIG. 14
# Procedure: as §2, §3
# MBP-E3 = MBP-E3 (Escherichia coli, UniProt P0AEX9); settings: data not shown
# Text: (§4) The application of using the K3-b1b3 beacon for detection of E3-fusion proteins has also been tested. For this purpose, a recombinant maltose binding protein (MBP) with E3 fused at its C-terminal end was created.
# FosLZ = target: T1, FosLZ (Homo sapiens, UniProt P01100); experiment: Non-specific fluorescence enhancement (crosstalk) assay, FIG. 14, with FosLZ; type: binding; settings: 100 nM beacon, 10 μM FosLZ, 580 nm, excitation 520 nm
# T1 construct: TDTLQAE TDQLEDE KSALQTE IANLLKE KEKLEFI LA; made in house; host or cells: E. coli BL21(DE3)
# Procedure: as §2, §3
# unlabeled JunLZ-Lb1b4 = experiment: Non-specific fluorescence enhancement (crosstalk) assay, FIG. 14A, with unlabeled JunLZ-Lb1b4; type: binding; settings: 100 nM beacon, 10 μM unlabeled JunLZ-Lb1b4, 580 nm, excitation 520 nm
# Procedure: as §2, §3
# unlabeled GCN4 244 = target: T2, unlabeled GCN4 244 (Saccharomyces cerevisiae, UniProt P03069, A244C/S225C); experiment: Non-specific fluorescence enhancement (crosstalk) assay, FIG. 14, with unlabeled GCN4 244; type: binding, yeast; settings: 100 nM beacon, 10 μM unlabeled GCN4 244, 580 nm, excitation 520 nm
# T2 construct: […]; MKQLEDK; GGSGG linker (internal); made in house; host or cells: E. coli BL21(DE3)
# Procedure: as §2, §3
# wild-type MBP = wild-type MBP (Escherichia coli, UniProt P0AEX9); settings: data not shown
# Text: as §1, §4
# AP-1 DNA [5] = experiment: Fluorescence titration of GCN4 beacon with AP-1 DNA; type: binding; settings: titration of 100 nM beacon with increasing concentration of AP-1 DNA
# Procedure: (§5) Samples contain 100 nM GCN4 225/244 beacon and indicated concentration of DNA.
# (§6) The AP-1 DNA and AT DNA were used for GCN-4 beacons binding assays as the target and control DNAs, respectively. Rex aptamer and TAR RNA were used for Rex beacon binding assays as the target and control RNAs, respectively. For detailed structures of Rex aptamer and TAR RNA, refer to PDB 1EXY and 1MNB, respectively.
# AT DNA = experiment: Fluorescence titration of GCN4 beacon with AT DNA (negative control); type: binding; settings: 100 nM beacon
# Procedure: as §5, §6
# AP-1 DNA [6] = experiment: Absorbance spectra of GCN4 beacons with AP-1 DNA; type: binding; settings: 1 μM beacon, 10 μM DNA
# Procedure: FIGS. 2A and 2B show line graphs of absorbance versus wavelength (nm). […] All samples contain 1 μM beacon, and concentration for DNA is 10 μM.
# as §6
# As shown by the shifted absorbance peaks (i.e. shift of highest peak) in FIGS. 2A and 2B, both GCN4 225/237 and GCN4 225/244 beacons allow formation of TAMRA H-dimer. […] The GCN4 225/244 beacon was selected for further characterization.
# E3 peptide [7] = experiment: CD spectra analysis of binding between unlabeled K3-b1b3 and E3 peptides; settings: curve fitting
substance,measurement,setting,value
original K3 peptide K IAALKEK IAALKEK IAALKE (SEQ ID NO:29),pKd,"E3 peptide [1]; literature value restated in Example 4, read-out: Kd value for binding between the K3 and E3 peptides",7.15
same,pKd,"E3 peptide [1]; reported in the literature, read-out: Kd value for binding between the original K3 and E3 peptides",7.15
K ICALKAK IAALKAK ICALKAGY (SEQ ID NO: 12) with two 6-TAMRA fluorophores attached at the cysteines via maleimide [K3-b1b3 beacon],pKd,"E3 peptide [2]; curve fitting, 1 μM beacon titration, read-out: Kd value for binding between K3-b1b3 beacon and E3 peptide",6.12
same,pKd,"E3 peptide [2]; curve fitting, titration of 10 nM beacon, read-out: Kd value for binding between K3-b1b3 beacon and E3 peptide",6.13
same,pKd,"E3 peptide [2]; read-out: Kd, result of 1 μM beacon titration (restated), 1 μM beacon titration",6.12
same,maximum fluorescence enhancement,E3 peptide [2]; titration of 1 μM K3-b1b3 beacon with E3 peptide,about 12 fold
same,fluorescence enhancement compared with the beacon only sample,E3 peptide [3],7.0 fold
same,non-specific fluorescence enhancement by unrelated peptides,[4],no significant non-specific fluorescence enhancement
same,binding by gel-shift assay,MBP-E3,Specific binding
same,fluorescence enhancement compared with the beacon only sample,FosLZ,1.6 fold
same,fluorescence enhancement compared with the beacon only sample,unlabeled JunLZ-Lb1b4,1.5 fold
same,fluorescence enhancement compared with the beacon only sample,unlabeled GCN4 244,1.2 fold
same,effect on fluorescence emission of the beacon,wild-type MBP,does not have effects
"GCN4 225/244 beacon: GCN4 bZip S225C/A244C (SEQ ID NO: 27), fused to C-terminal end of MBP, TAMRA labelled",maximum fluorescence increase,AP-1 DNA [5],4.3 fold
same,effect of AT DNA on fluorescence,AT DNA,no effects
same,change of absorbance spectrum in the presence of AP-1 DNA,AP-1 DNA [6],significant alteration of its absorbance spectrum
unlabeled modified K3 peptide K ICALKAK IAALKAK ICALKA GY (SEQ ID NO:12) [K3-b1b3],pKd,E3 peptide [7],7.35
